Our source for the relative tumor volume values is patent publication US8323669B2, “Polymer conjugate of taxane” (priority 2006, dated 2012).

What all share (format): in vivo, mouse (female CDF1 mice)
Experiment [1] has as its system Mouse colon cancer, Colon26. Put plainly: Antitumor effect of compounds 2 and 3 (Test Example 4). As to conditions: single i.v. at maximum tolerance dose (conjugates 200 mg/kg as DTX, DTX 100 mg/kg). An excerpt:
Mouse colon cancer, Colon26, maintained by serial subcutaneous subculture in mice was minced into about 2-mm square fragments, and the fragments were subcutaneously transplanted on the dorsal part of female CDF1 mice with a trocar. Seven days after tumor transplantation, the polymer conjugates of the present invention (compound 2 and compound 3) and the control drug (docetaxel, DTX) were each intravenously administered once to the mouse tail vein at the respective maximum tolerance dose. The compound 2 and compound 3 were dissolved in 5% glucose solution for injection to a level for the use at a dose of 200 mg/kg as DTX. DTX to be used was prepared by dissolving a commercially available Taxotere injection (for 100 mg/kg use) in a vehicle solution attached to the product, and diluting it with physiological saline at the time of use. After the administration, the major axis (L mm) and minor axis (W mm) of the tumor were measured using a caliper, and the tumor volume was calculated by the formula: (L×W^2)/2.

The test system of experiment [2] is Mouse colon cancer, Colon26. Put plainly: Antitumor effect of compound 4 (Test Example 5). Particulars: single i.v. at maximum tolerance dose (compound 4 200 mg/kg as DTX, DTX 100 mg/kg). Here is the method: Mouse colon cancer, Colon26, maintained by serial subcutaneous subculture in mice was minced into about 2-mm square fragments, and these fragments were subcutaneously transplanted on the dorsal part of female CDF1 mice with a trocar. Seven days after tumor transplantation, the polymer conjugate of the present invention (compound 4) or the control drug (docetaxel, DTX) was intravenously administered once to the mouse tail vein at the maximum tolerance dose. The compound 4 was dissolved in a 5% glucose solution for injection at a level for the use at a dose of 200 mg/kg as DTX. DTX to be used was prepared by dissolving a commercially available Taxotere injection (for the use at a dose of 100 mg/kg use) with a vehicle solution attached to the product and diluting it with physiological saline at the time of use. After the administration, the major axis (L mm) and minor axis (W mm) of the tumor were measured using a caliper, and the tumor volume was calculated by the formula: (L×W^2)/2.

Experiment [3] relates to Mouse colon cancer, Colon26. Put plainly: Antitumor effect of compound 1 (Test Example 3). As to conditions: i.v. three times (Day 0, 4, 8), 200 mg/kg as PTX. Here is the method:
Mouse colon cancer, Colon26, maintained by serial subcutaneous subculture in mice was minced into about 2-mm square fragments, and the fragments were subcutaneously transplanted on the dorsal part of female CDF1 mice with a trocar. Seven days after tumor transplantation, the polymer conjugate of the present invention (compound 1) or the control drug (paclitaxel, PTX) was administered intravenously to the mouse tail vein three times at an interval of 4 days (Day 0, Day 4 and Day 8 in Table 1) at a dose of 200 mg/kg as PTX. The compound 1 was dissolved in a 5% glucose solution for injection and used. PTX was dissolved in anhydrous ethanol and cremophor (manufactured by Sigma Co., Ltd) and diluted with physiological saline at the time of use. After the administration, the major axis (L mm) and minor axis (W mm) of the tumor were measured using a caliper, and the volume of the tumor was calculated by the formula: (L×W^2)/2.

With `CC(=O)O[C@@]12CO[C@@H]1C[C@H](O)[C@@]1(C)C(=O)[C@H](O)C3=C(C)[C@@H](OC(=O)[C@H](O)[C@@H](NC(=O)OC(C)(C)C)c4ccccc4)C[C@@](O)([C@@H](OC(=O)c4ccccc4)[C@H]21)C3(C)C` [DTX, docetaxel], the relative tumor volume in experiment [1] (Day 0 after administration) is 1.00; in experiment [1] (Day 2 after administration) it was 1.61; in experiment [1] (Day 4 after administration), 1.57; in experiment [1] (Day 7 after administration) it was 2.30; in experiment [1] (Day 10 after administration), 5.85; in experiment [2] (Day 0 after administration), 1.00. The relative tumor volume worked out at 1.17 in experiment [2] (Day 3 after administration), 1.17 in experiment [2] (Day 5 after administration), 2.17 in experiment [2] (Day 7 after administration) and 5.75 in experiment [2] (Day 10 after administration).

Take `CC(=O)O[C@H]1C(=O)[C@@]2(C)[C@H]([C@H](OC(=O)c3ccccc3)[C@]3(O)C[C@H](OC(=O)[C@H](O)[C@@H](NC(=O)c4ccccc4)c4ccccc4)C(C)=C1C3(C)C)[C@]1(OC(C)=O)CO[C@@H]1C[C@@H]2O` [Paclitaxel, paclitaxel]: the relative tumor volume in experiment [3] (Day 0 after administration initiation) is 1; in experiment [3] (Day 4 after administration initiation), 3.28; in experiment [3] (Day 8 after administration initiation), 4.75; in experiment [3] (Day 11 after administration initiation) it was 4.07.
